Structures can show the parent of a compound that is named as a salt.

By IC50 is commonly meant the concentration needed to halve the response being measured.

For this experiment, the target named is T1, purified STEP46 enzyme (Homo sapiens, UniProt P54829).
T1 sequence (P54829 197-565 limits assumed): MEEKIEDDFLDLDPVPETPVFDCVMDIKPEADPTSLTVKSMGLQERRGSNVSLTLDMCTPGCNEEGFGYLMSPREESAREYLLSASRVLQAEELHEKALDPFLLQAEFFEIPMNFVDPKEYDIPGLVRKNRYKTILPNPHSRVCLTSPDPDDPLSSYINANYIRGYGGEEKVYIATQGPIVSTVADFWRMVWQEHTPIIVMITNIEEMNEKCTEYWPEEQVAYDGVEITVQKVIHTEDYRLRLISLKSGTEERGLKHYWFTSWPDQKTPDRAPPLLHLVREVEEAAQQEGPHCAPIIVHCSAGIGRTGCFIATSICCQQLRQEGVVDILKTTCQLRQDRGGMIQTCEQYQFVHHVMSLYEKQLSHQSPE
Put plainly: STEP46 biochemical assay (DiFMUP fluorescence phosphatase assay). As to conditions: DiFMUP 10 μM, read-out: STEP IC50. Put shortly:
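Purified human STEP46 preincubated 30 min at room temperature with compounds in Hepes/DTT/Brij35 buffer (2% DMSO final), then reacted with 10 μM DiFMUP for 90 min at 27°C; fluorescence read at 360/460 nm. IC50 from four-parameter fit; activation shown as negative % inhibition at 25, 50, 100 uM.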
Consider `Fc1ccc(-c2ccc3nc(-c4cccnc4)nc(-c4cscn4)c3c2)c(F)c1` [Compound 421, 4-(6-(2,4-difluorophenyl)-2-(pyridin-3-yl)quinazolin-4-yl)thiazole], for which the IC50 was less than 1000 nM.
Under `Cc1noc(C)c1-c1nc(-c2cccnc2)nc2ccc(-c3ccc(F)cc3F)cc12` [Compound 422] stands 1000 to 10000 nM; under `CNC(=O)C1CN(c2nc(-c3cccnc3)nc3ccc(-c4ccc(F)cc4F)cc23)C1` [Compound 423], 1000 to 10000 nM; under `Fc1ccc(-c2ccc3nc(-c4cccnc4)nc(-c4ncco4)c3c2)c(F)c1` [Compound 425], 1000 to 10000 nM.
As to `Fc1ccc(-c2ccc3nc(-c4cccnc4)nc(Nc4ccc(F)cn4)c3c2)cc1` [Compound 436], the IC50 is 1000 to 10000 nM.
Under `Fc1ccc(-c2ccc3nc(-c4cccnc4)nc(Nc4ccccn4)c3c2)cc1` [Compound 437] stands 1000 to 10000 nM.
Under `Fc1ccc(-c2ccc3nc(-c4cccnc4)nc(Nc4cccc(F)n4)c3c2)cc1` [Compound 439] stands 1000 to 10000 nM; under `Fc1ccc(-c2ccc3nc(-c4cccnc4)nc(Nc4cncc(F)c4)c3c2)cc1` [Compound 440], 1000 to 10000 nM; under `Cc1ccc(Nc2nc(-c3cccnc3)nc3ccc(-c4ccc(F)cc4)cc23)nc1` [Compound 441], 1000 to 10000 nM.
Under `Fc1ccc(-c2ccc3nc(-c4cccnc4)nc(Nc4cc(F)ccn4)c3c2)cc1` [Compound 442] stands 1000 to 10000 nM; under `Fc1ccc(-c2ccc3nc(-c4cccnc4)nc(N4CCc5cccnc54)c3c2)cc1` [Compound 443], 1000 to 10000 nM; under `Cc1ccc2c(c1)N(c1nc(-c3cccnc3)nc3ccc(-c4cccc(F)c4F)cc13)CC2` [Compound 446], 1000 to 10000 nM.
Take `CNc1nc(-c2cccnc2)nc2ccc(-c3cccc(C(=O)Nc4nncs4)c3)cc12` [Compound 447]: the half-inhibitory concentration (IC50) was less than 1000 nM.
The result for `CNc1nc(-c2cccnc2)nc2ccc(-c3cccc4c3CNC4=O)cc12` [Compound 450] reads 1000 to 10000 nM.
Under `CNc1nc(-c2cccnc2)nc2cc(-c3c(F)ccc(F)c3F)ccc12` [Compound 453] stands 1000 to 10000 nM; under `CNc1nc(-c2cccnc2)nc2cc(-c3c(F)cc(F)cc3F)ccc12` [Compound 454], 1000 to 10000 nM; under `CNc1nc(-c2cccnc2)nc2cc(-c3c(F)cccc3F)ccc12` [Compound 455], 1000 to 10000 nM.
For the molecule `CNc1nc(-c2cccnc2)nc2ccc(-c3c(F)ccc(F)c3F)cc12` [Compound 456], the IC50 was 1000 to 10000 nM.
The result for `CNc1nc(-c2cccnc2)nc2ccc(-c3c(F)cc(F)cc3F)cc12` [Compound 457] reads 1000 to 10000 nM; that for `CNc1nc(-c2cccnc2)nc2ccc(-c3c(F)cccc3F)cc12` [Compound 458], 1000 to 10000 nM.
The result for `CNc1nc(-c2cccnc2)nc2ccc(-c3ccc4oc(=O)[nH]c4c3)cc12` [Compound 462] reads less than 1000 nM; that for `CNc1nc(-c2cccnc2)nc2ccc(-c3cnc(-c4ccccc4)s3)cc12` [Compound 464], greater than 10000 nM.
Under `CNc1nc(-c2cccnc2)nc2ccc(-c3nnc(-c4ccccc4)s3)cc12` [Compound 466] stands 1000 to 10000 nM; under `CNc1nc(-c2cccnc2)nc2ccc(-c3ccc4c(c3)N(C)C(=O)CO4)cc12` [Compound 467], 1000 to 10000 nM; under `CNc1nc(-c2cccnc2)nc2ccc(-c3ccc4c(c3)NC(=O)CO4)cc12` [Compound 469], less than 1000 nM.
With `CNc1nc(-c2cccnc2)nc2ccc(-c3ccc4c(c3)oc(=O)n4C)cc12` [Compound 470], the IC50 is less than 1000 nM.
Under `CNc1nc(-c2cccnc2)nc2ccc(-c3ccc4c(c3)SCC(=O)N4)cc12` [Compound 471] stands 1000 to 10000 nM; under `CNc1nc(-c2cccnc2)nc2ccc(-c3nnc(C)s3)cc12` [Compound 472], greater than 10000 nM.
The result for `CNc1nc(-c2cccnc2)nc2ccc(-c3cccc(-c4nccs4)c3)cc12` [Compound 473] reads less than 1000 nM; that for `CNc1nc(-c2cccnc2)nc2ccc(-c3cccc4[nH]c(=O)oc34)cc12` [Compound 475], less than 1000 nM.
The result for `CNc1nc(-c2cccnc2)nc2ccc(-c3cccc4oc(=O)[nH]c34)cc12` [Compound 476] reads less than 1000 nM; that for `CNc1nc(-c2cccnc2)nc2ccc(-c3cc4[nH]c(=O)oc4cc3F)cc12` [Compound 477], less than 1000 nM; that for `CNc1nc(-c2cccnc2)nc2ccc(-c3ccc4c(c3)C(=O)NCCO4)cc12` [Compound 479], 1000 to 10000 nM.
`CNc1nc(-c2cccnc2)nc2ccc(-c3ccc(F)cc3F)c(OC)c12` [Compound 487]: the IC50 lay within 1000 to 10000 nM.
Take `CNc1nc(-c2cccnc2)nc2ccc(-c3cc(F)cc(F)c3)c(OC)c12` [Compound 488]: the IC50 is greater than 10000 nM.
The result for `CNc1nc(-c2cccnc2)nc2c(-c3cccc(C#N)c3)ccc(OC)c12` [Compound 489, 3—(5-methoxy-4-(methylamino)-2-(pyridin-3-yl)quinazolin-8-yl)benzonitrile dihydrochloride] reads 1000 to 10000 nM; that for `CNc1nc(-c2cccnc2)nc2c(-c3ccc(F)cc3F)ccc(OC)c12` [Compound 490], 1000 to 10000 nM.
Under `CNc1nc(-c2cccnc2)nc2c(-c3cc(F)cc(F)c3)ccc(OC)c12` [Compound 491] stands 1000 to 10000 nM; under `CNc1nc(-c2cccnc2)nc2c(-c3cccc(F)c3F)ccc(OC)c12` [Compound 492], 1000 to 10000 nM; under `CNc1nc(-c2cccnc2)nc2c(-c3ccc(F)c(F)c3)ccc(OC)c12` [Compound 496], 1000 to 10000 nM.
Under `CNc1nc(-c2cccnc2)nc2c(-c3cc(F)ccc3F)ccc(OC)c12` [Compound 497] stands 1000 to 10000 nM; under `CNc1nc(-c2cccnc2)nc2c(-c3cc(F)cc(OC)c3)ccc(OC)c12` [Compound 498], 1000 to 10000 nM.
Turning to `CNc1nc(-c2cccnc2)nc2c(F)c(-c3ccc(F)cc3)ccc12` [Compound 505], the IC50 fell in the range of 1000 to 10000 nM.
Take `CNc1nc(-c2cccnc2)nc2c(F)c(-c3cccc(F)c3)ccc12` [Compound 510]: the IC50 is 1000 to 10000 nM.
In the case of `CNc1nc(-c2cccnc2)nc2c(F)c(-c3cccc(C#N)c3)ccc12` [Compound 511], the 50% inhibitory concentration (IC50) lay within 1000 to 10000 nM.
The result for `CNc1nc(-c2cccnc2)nc2c(F)c(-c3ccc(C#N)cc3)ccc12` [Compound 512] reads less than 1000 nM; that for `CNc1nc(-c2cccnc2)nc2c(F)c(-c3ccccc3F)ccc12` [Compound 513], 1000 to 10000 nM; that for `CNc1nc(-c2cccnc2)nc2c(F)c(-c3cc(F)ccc3F)ccc12` [Compound 514], 1000 to 10000 nM.
Under `CNc1nc(-c2cccnc2)nc2c(F)c(-c3cccc(F)c3F)ccc12` [Compound 515] stands 1000 to 10000 nM; under `CNc1nc(-c2cccnc2)nc2c(F)c(-c3cc(F)cc(F)c3)ccc12` [Compound 516], less than 1000 nM.
Regarding `CNc1nc(-c2cccnc2)nc2c(F)c(-c3ccc(F)c(F)c3)ccc12` [Compound 517], the IC50 lay within 1000 to 10000 nM.
Under `CNc1nc(-c2cccnc2)nc2c(F)c(-c3ccc(OC)cc3)ccc12` [Compound 518] stands 1000 to 10000 nM; under `CNc1nc(-c2cccnc2)nc2c(F)c(-c3ccncc3)ccc12` [Compound 519], 1000 to 10000 nM.
The result for `CNc1nc(-c2cccnc2)nc2c(F)c(-c3cc(F)c(F)c(F)c3)ccc12` [Compound 520] reads less than 1000 nM; that for `CNc1nc(-c2cccnc2)nc2c(F)c(-c3ccc(F)c(F)c3F)ccc12` [Compound 521], 1000 to 10000 nM; that for `CNc1nc(-c2cccnc2)nc2c(F)c(-c3cc(F)c(F)cc3F)ccc12` [Compound 522], 1000 to 10000 nM.
Turning to `CNc1nc(-c2cccnc2)nc2c(F)c(-c3cc(F)cc(F)c3F)ccc12` [Compound 523], the IC50 is less than 1000 nM.
Under `CNc1nc(-c2cccnc2)nc2c(F)c(-c3ccco3)ccc12` [Compound 524] stands 1000 to 10000 nM; under `CNc1nc(-c2cccnc2)nc2c(F)c(-c3cccc(C)c3)ccc12` [Compound 525], 1000 to 10000 nM.
Under `CNc1nc(-c2cccnc2)nc2c(F)c(-c3ccc(C)cc3)ccc12` [Compound 526] stands 1000 to 10000 nM; under `CNc1nc(-c2cccnc2)nc2c(F)c(-c3ccsc3)ccc12` [Compound 527], 1000 to 10000 nM.
For `CNc1nc(-c2cccnc2)nc2c(F)c(-c3ccc(C(F)(F)F)cc3)ccc12` [Compound 528], the IC50 lay in the range of 1000 to 10000 nM.
With `CNc1nc(-c2cccnc2)nc2c(F)c(-c3ccc4sccc4c3)ccc12` [Compound 529], the IC50 lay within 1000 to 10000 nM.
The result for `CNc1nc(-c2cccnc2)nc2c(F)c(-c3ccoc3)ccc12` [Compound 530] reads 1000 to 10000 nM.
Under `CNc1nc(-c2cccnc2)nc2c(F)c(-c3ccc4c(cnn4C)c3)ccc12` [Compound 532] stands less than 1000 nM; under `CNc1nc(-c2cccnc2)nc2c(F)c(-c3cccs3)ccc12` [Compound 533], 1000 to 10000 nM; under `CNc1nc(-c2cccnc2)nc2c(F)c(-c3cc4ccccc4s3)ccc12` [Compound 534], greater than 10000 nM.
Under `CNc1nc(-c2cccnc2)nc2c(F)c(-c3ccc4[nH]ncc4c3)ccc12` [Compound 535] stands 1000 to 10000 nM; under `CNc1nc(-c2cccnc2)nc2c(F)c(-c3csc4ccccc34)ccc12` [Compound 537], 1000 to 10000 nM; under `CNc1nc(-c2cccnc2)nc2c(F)c(-c3cccc4sccc34)ccc12` [Compound 538], 1000 to 10000 nM.

Values taken from patent US20140315886A1, “QUINAZOLINES AS THERAPEUTIC COMPOUNDS AND RELATED METHODS OF USE” (OTSUKA PHARMACEUTICAL CO., LTD., priority 2011, published 2014).
